Results published in patent US20200270232A1, “INHIBITORS OF INTEGRATED STRESS RESPONSE PATHWAY” (Praxis Biotech LLC, priority 2019, published 2020).

Columns and labels:
[1] = test system: Chinese hamster ovary (CHO) cells; experiment: Protein translation assay (puromycin labelling, western blot); type: cell-based; conditions: 2 hours, media alone = 100%; for activity at 1 µM: Cricetulus griseus, unstressed CHO cells (without Tg), 1 μM test compound, read-out: % Protein synthesis relative to untreated (1 μM test compound); for % Recovery of protein synthesis (1 μM test compound): stressed CHO cells, 300 nM Tg, Tg alone = 0%
Description: Chinese hamster ovary (CHO) cells were maintained at 37° C. and 5% C02 in Dulbecco's Modified Eagle's Media (DMEM) supplemented with 10% fetal bovine serum, 2 mM L-glutamine, 100 U/ml penicillin, and 100 μg/ml streptomycin. After reaching 80% of confluence, cells were detached and seeded on 6 well plates in complete media, allowed to recover overnight and treated for 2 hours with 1 μM of the test compound (to assess protein synthesis levels in unstressed condition), or for 2 hours with 300 nM Tg in the presence of 1 μM of the test compound (to assess the recovery of protein synthesis in a stressed condition). Cells with Tg alone were used as controls.
After the 2 hours treatments, media were replaced by adding 10 μg/ml puromycin (Sigma Aldrich # P8833) in complete media for 30 min. Media were removed and cells were lysed with SDS-PAGE lysis buffer. Lysates were transferred to 1.5 ml tubes and sonicated for 3 min and total protein amount were quantified using BCA Protein Assay Kit (Pierce). Equal amount of protein (30 μg) was loaded on SDS-PAGE gels. Proteins were transferred onto 0.2 μm PVDF membranes (BioRad) and probed with primary antibodies diluted in Tris-buffered saline supplemented with 0.1% Tween 20 (Merck # S6996184 505) and 3% bovine serum albumin (Rockland # BSA-50).
Puromycin (12D10) (Merck # MABE343) and β-actin (Sigma Aldrich # A5441) antibodies were used as primary antibody. A HRP-conjugated secondary antibody (Rockland) was employed to detect immune-reactive bands using enhanced chemiluminescence (ECL Western Blotting Substrate, Pierce). Quantification of protein bands was done by densitometry using ImageJ software.
Percent increase of protein synthesis in unstressed cells (without Tg treatment) in the presence of media alone or certain test compounds is shown in Table 3. The percentage levels were normalized to the media alone condition, which correspond to 100% protein synthesis.
Percent recovery of protein synthesis in stressed cells (with Tg treatment) due to the test compounds at 1 μM is also shown in Table 3. The levels were normalized to the media alone and Tg alone conditions, which correspond to 100% and 0% respectively.

ATF4 = ATF4 expression inhibition assay (ATF4 luciferase reporter); type: cell-based; conditions: Homo sapiens, HEK-293T; HEK293T cells carrying the ATF4 luciferase reporter, 100 nM thapsigargin (Tg), 3 hours; read-out: ATF4 inhbition IC50
Description: The ATF4 reporter was prepared by fusing the human full length 5′UTR of ATF4 (NCBI Accession No. BC022088.2) upstream of the firefly luciferase coding sequence lacking the initiator methionine. The fused sequence was cloned into pLenti-EF1a-C-Myc-DDK-IRES-Puro cloning vector (Origen # PS 100085) using standard methods. Virus production was carried out by using Lenti-X™ Packaging Single Shots Protocol (Clonetech #631276). Viral particles were used to transduce HEK293T cells (ATCC # CRL-3216, ATCC Manassas, Va.), which were subsequently selected with puromycin to generate stable cell line. Cells were maintained at 37° C. and 5% CO2 in DMEM-F12 (Hyclone # SH30023.02) supplemented with 10% heat-inactivated fetal bovine serum (Gibco #16000-044), 2 mM L-glutamine (Gibco #25030-081), 100 U/ml penicillin, and 100 μg/ml streptomycin (Gibco #15140-122).
HEK293T cells carrying the ATF4 luciferase reporter were plated on 96-well plates (Nunc) at 10,000 cells per well. Cells were treated two days after seeding with 100 nM thapsigargin (Tg) (Sigma-Aldrich # T9033) in the presence of different concentrations of selected compounds ranging from 1 nM to 10 μM. Cells without treatment or cells treated with Tg alone were used as controls. Assay plates containing cells were incubated for 3 hours at 37° C.
Luciferase reactions were performed using Luciferase Assay System (Promega # E1501) as specified by the manufacturer. Luminescence was read with an integration time of 1 s and a gain of 110 using a Cytation-5 multi-mode microplate reader (BioTek). Relative luminescence units were normalized to Tg treatment (0% inhibition) and untreated cells (100% inhibition) and the percentage of ATF4 inhibition was calculated.
Accordingly, inhibition of ATF4 expression as a result of the test compound indicates suppression of the ISR pathway.

| Compound | activity at 1 µM [1] [%] | IC50 (ATF4) [nM] | % Recovery of protein synthesis (1 μM test compound) [1] [%] |
| --- | --- | --- | --- |
| O=C(COc1ccc(Cl)c(F)c1)N[C@H]1CC[C@H](NC(=O)COc2ccc(Cl)c(F)c2)C1 [Compound 1, N,N′-((1S,3S)-cyclopentane-1,3-diyl)bis(2-(4-chloro-3-fluorophenoxy)acetamide)] | 46.9 | 856 |  |
| O=C(COc1ccc(Cl)c(F)c1)N[C@H]1CC[C@@H](NCC(O)COc2ccc(Cl)c(F)c2)C1 (stereo partly drawn) [Compound 2, 2-(4-chloro-3-fluorophenoxy)-N-((1S,3R)-3-((3-(4-chloro-3-fluorophenoxy)-2-hydroxypropyl)amino)cyclopentyl)acetamide] | 84.7 | > 1000 | 28.2 |
| O=C(N[C@H]1CC[C@@H](NCC(O)COc2ccc(Cl)c(F)c2)C1)c1ccc2cc(Cl)ccc2n1 (stereo partly drawn) [Compound 3, 6-chloro-N-((1S,3R)-3-((3-(4-chloro-3-fluorophenoxy)-2-hydroxypropyl)amino)cyclopentyl)quinoline-2-carboxamide] | 176 | 249 | 286 |
| O=C(COc1ccc(Cl)c(F)c1)NCC1CCN(C(=O)COc2ccc(Cl)c(F)c2)C1 (stereo not shown) [Compound 4, 2-(4-chloro-3-fluorophenoxy)-N-((1-(2-(4-chloro-3-fluorophenoxy)acetyl)pyrrolidin-3-yl)methyl)acetamide] | 76.1 | > 100 |  |
| O=C(COc1ccc(Cl)c(F)c1)NCC1CCN(C(=O)c2ccc3cc(Cl)ccc3n2)C1 (stereo not shown) [Compound 5, 2-(4-chloro-3-fluorophenoxy)-N-((1-(6-chloroquinoline-2-carbonyl)pyrrolidin-3-yl)methyl)acetamide] | 94.2 | > 100 | 0.00 |
| O=C(COc1ccc(Cl)c(F)c1)NCC1CCN(C(=O)c2cc3cc(Cl)ccc3o2)C1 (stereo not shown) [Compound 6, 2-(4-chloro-3-fluorophenoxy)-N-((1-(5-chlorobenzofuran-2-carbonyl)pyrrolidin-3-yl)methyl)acetamide] | 81.2 | > 100 | 0.00 |
| O=C(COc1ccc(Cl)c(F)c1)NCC1CCN(CC(O)COc2ccc(Cl)c(F)c2)C1 (stereo not shown) [Compound 7, 2-(4-chloro-3-fluorophenoxy)-N-((1-(3-(4-chloro-3-fluorophenoxy)-2-hydroxypropyl)pyrrolidin-3-yl)methyl)acetamide] | 122 | > 100 |  |
| O=C(NCC1CCN(CC(O)COc2ccc(Cl)c(F)c2)C1)c1cc2cc(Cl)ccc2o1 (stereo not shown) [Compound 8, 5-chloro-N-((1-(3-(4-chloro-3-fluorophenoxy)-2-hydroxypropyl)pyrrolidin-3-yl)methyl)benzofuran-2-carboxamide] | 107 | > 1000 | 31.57 |
| O=C(COc1ccc(Cl)c(F)c1)NCC1CCN(NC(=O)c2cc3cc(Cl)ccc3o2)C1 (stereo not shown) [Compound 12, 5-chloro-N-(3-((2-(4-chloro-3-fluorophenoxy)acetamido)methyl)pyrrolidin-1-yl)benzofuran-2-carboxamide] | 97.7 | 3.58 | 13 |
| O=C(N[C@H]1CC[C@H](NCC(O)COc2ccc(Cl)c(F)c2)C1)c1ccc2cc(Cl)ccc2n1 (stereo partly drawn) [Compound 13, 6-chloro-N-((1S,3S)-3-((3-(4-chloro-3-fluorophenoxy)-2-hydroxypropyl)amino)cyclopentyl)quinoline-2-carboxamide] | 288 | > 100 | 161.6 |
| O=C(COc1ccc(Cl)c(F)c1)N[C@H]1CC[C@H](NC(=O)c2cc3cc(Cl)ccc3o2)C1 [Compound 14, 5-chloro-N-((1S,3S)-3-(2-(4-chloro-3-fluorophenoxy)acetamido)cyclopentyl)benzofuran-2-carboxamide] | 65.9 | 217 |  |
| O=C(COc1ccc(Cl)c(F)c1)N[C@@H]1CC[C@H](NC(=O)COc2ccc(Cl)c(F)c2)C1 [Compound 15, N,N′-((1R,3S)-cyclopentane-1,3-diyl)bis(2-(4-chloro-3-fluorophenoxy)acetamide)] | 110 | > 100 |  |
| O=C(COc1ccc(Cl)c(F)c1)N[C@H]1CC[C@H](NC(=O)c2ccc3cc(Cl)ccc3n2)C1 [Compound 16, 6-chloro-N-((1S,3S)-3-(2-(4-chloro-3-fluorophenoxy)acetamido)cyclopentyl)quinoline-2-carboxamide] | 95.4 | 134 |  |
| O=C(COc1ccc(Cl)c(F)c1)N[C@@H]1CC[C@H](NC(=O)c2cc3cc(Cl)ccc3o2)C1 [Compound 17, 5-chloro-N-((1S,3R)-3-(2-(4-chloro-3-fluorophenoxy)acetamido)cyclopentyl)benzofuran-2-carboxamide] | 78.4 | 102 | 22 |
| O=C(N[C@H]1CC[C@H](NCC(O)COc2ccc(Cl)c(F)c2)C1)c1cc2cc(Cl)ccc2o1 (stereo partly drawn) [Compound 18, 5-chloro-N-((1S,3S)-3-((3-(4-chloro-3-fluorophenoxy)-2-hydroxypropyl)amino)cyclopentyl)benzofuran-2-carboxamide] | 158 | 178 |  |
| O=C(COc1ccc(Cl)c(F)c1)N[C@@H]1CC[C@H](NC(=O)c2ccc3cc(Cl)ccc3n2)C1 [Compound 19, 6-chloro-N-((1S,3R)-3-(2-(4-chloro-3-fluorophenoxy)acetamido)cyclopentyl)quinoline-2-carboxamide] | 76.1 | > 100 |  |
| O=C(COc1ccc(Cl)c(F)c1)N[C@H]1CC[C@H](NCC(O)COc2ccc(Cl)c(F)c2)C1 (stereo partly drawn) [Compound 20, 2-(4-chloro-3-fluorophenoxy)-N-((1S,3S)-3-((3-(4-chloro-3-fluorophenoxy)-2-hydroxypropyl)amino)cyclopentyl)acetamide] | 123 | > 100 | 52.5 |
| O=C(N[C@H]1CC[C@@H](NCC(O)COc2ccc(Cl)c(F)c2)C1)c1cc2cc(Cl)ccc2o1 (stereo partly drawn) [Compound 21, 5-chloro-N-((1S,3R)-3-((3-(4-chloro-3-fluorophenoxy)-2-hydroxypropyl)amino)cyclopentyl)benzofuran-2-carboxamide] | 141 | > 1000 | 54.6 |
| O=C(NCC1CCC(NCC(O)COc2ccc(Cl)c(F)c2)C1)c1cc2cc(Cl)ccc2o1 (stereo not shown) [Compound 33, 5-chloro-N-((3-((3-(4-chloro-3-fluorophenoxy)-2-hydroxypropyl)amino)cyclopentyl)methyl)benzofuran-2-carboxamide] | 147 | > 1000 | 101.1 |
| O=C(NCC1CCC(NCC(O)COc2ccc(Cl)c(F)c2)C1)c1ccc2cc(Cl)ccc2n1 (stereo not shown) [Compound 34, 6-chloro-N-((3-((3-(4-chloro-3-fluorophenoxy)-2-hydroxypropyl)amino)cyclopentyl)methyl)quinoline-2-carboxamide] | 166 | > 1000 | 122.6 |
